Where two headings read alike, the source gives them in different places.
Tests used:
mtOXPHOS transcripts = type: cell-based, mouse; details: for mitoOX (composite Z-score): normalized score vs mock-treated (DMSO) wells
[1] = test system: cellular dehydrogenase activity; details: for MTT (composite Z-score): normalized score vs mock-treated (DMSO) wells
OXPHOS gene expression = type: cell-based, mouse; details: for GE-HTS (composite Z-score): normalized score vs mock-treated (DMSO) wells
C2C12 myotubes = details: for Viability (composite Z-score): normalized score vs mock-treated (DMSO) wells
reactive oxygen species = type: cell-based, mouse; details: for ROS (composite Z-score): normalized score vs mock-treated (DMSO) wells
nuOXPHOS transcripts = type: cell-based, mouse; details: for nucOX (composite Z-score): normalized score vs mock-treated (DMSO) wells
[2] = test system: mitochondrial membrane potential; type: cell-based, mouse; details: for ΔΨm (composite Z-score): normalized score vs mock-treated (DMSO) wells
cytochrome c = type: cell-based, mouse; details: for cyt c (composite Z-score): normalized score vs mock-treated (DMSO) wells
[3] = 14.44 μM, composite Z-score vs DMSO
[4] = 20 μM, composite Z-score vs DMSO
[5] = normalized composite Z-score vs mock-treated (DMSO) wells, Conc 20 μM
[6] = composite Z-score vs mock-treated (DMSO) wells, concentration of each compound in μM
[7] = composite Z-score vs DMSO, Conc 20 μM
[8] = composite Z-score vs mock-treated (DMSO) wells, Conc 20 μM

Question: Which mitoOX (mtOXPHOS transcripts; [3]) does the source give for `CC(C)(C)NCC(O)c1cc(Cl)c(N)c(Cl)c1` (centres unmarked) [clenbuterol] here?
Answer: The mitoOX was 0.011.

Question: And the MTT [1, 3]?
Answer: The MTT was −1.330.

Question: And the GE-HTS (OXPHOS gene expression; [3])?
Answer: The GE-HTS was 0.054.

Question: And the Viability (C2C12 myotubes; [3])?
Answer: The Viability was 0.134.

Question: And the ROS (reactive oxygen species; [3])?
Answer: Its ROS is 0.914.

Question: What about the nucOX (nuOXPHOS transcripts; [3]) of the same compound?
Answer: The nucOX was 0.063.

Question: And the ΔΨm [2, 3]?
Answer: Its ΔΨm is −1.139.

Question: And the cyt c (cytochrome c; [3])?
Answer: The cyt c was −0.261.

Question: How did the mitoOX (mtOXPHOS transcripts) turn out when `C[N+]12CCC(CC1)C(OC(=O)C(O)(c1ccccc1)c1ccccc1)C2` (centres unmarked) [clidinium] was run?
Answer: The mitoOX was −0.903.

Question: What about the mitoOX (mtOXPHOS transcripts; [4]) of the same compound?
Answer: Its mitoOX is −0.602.

Question: What about the MTT [1] of the same compound?
Answer: Its MTT is −2.250.

Question: And the MTT [1, 4]?
Answer: Its MTT is −1.393.

Question: What about the GE-HTS (OXPHOS gene expression) of the same compound?
Answer: The GE-HTS was −0.462.

Question: And the GE-HTS (OXPHOS gene expression; [4])?
Answer: Its GE-HTS is −0.556.

Question: And the Viability (C2C12 myotubes)?
Answer: The Viability was 0.172.

Question: And the Viability (C2C12 myotubes; [4])?
Answer: The Viability was −0.084.

Question: And the ROS (reactive oxygen species)?
Answer: Its ROS is 1.870.

Question: What about the ROS (reactive oxygen species; [4]) of the same compound?
Answer: The ROS was 1.625.

Question: What about the nucOX (nuOXPHOS transcripts) of the same compound?
Answer: The nucOX was −0.202.

Question: And the nucOX (nuOXPHOS transcripts; [4])?
Answer: Its nucOX is −0.503.

Question: And the ΔΨm [2]?
Answer: Its ΔΨm is −0.715.

Question: What about the ΔΨm [2, 4] of the same compound?
Answer: The ΔΨm was −0.772.

Question: And the cyt c (cytochrome c)?
Answer: The cyt c was 0.176.

Question: And the cyt c (cytochrome c; [4])?
Answer: Its cyt c is −0.062.

Question: What does the source list for `COC(=O)[C@H](c1ccccc1Cl)N1CCc2sccc2C1` [clopidogrel]?
Answer: mitoOX (mtOXPHOS transcripts): −1.441; MTT [1]: −1.447; GE-HTS (OXPHOS gene expression): −1.470; Viability (C2C12 myotubes): −1.134; ROS (reactive oxygen species): −0.196; nucOX (nuOXPHOS transcripts): −1.328; ΔΨm [2]: −0.698; cyt c (cytochrome c): 0.410

Question: What does the source list for `CC(=O)OC1CCC23CC1(C)CCC2C(C)(C)CC3OC(C)=O` (centres unmarked) [clovanediol diacetate]?
Answer: mitoOX (mtOXPHOS transcripts; [5]): −0.026; MTT [1, 5]: −0.708; GE-HTS (OXPHOS gene expression; [5]): −0.020; Viability (C2C12 myotubes; [5]): −0.119; ROS (reactive oxygen species; [5]): −0.318; nucOX (nuOXPHOS transcripts; [5]): 0.007; ΔΨm [2, 5]: −0.599; cyt c (cytochrome c; [5]): 0.384

Question: What does the source list for `Cc1onc(-c2ccccc2Cl)c1C(=O)N[C@@H]1C(=O)N2[C@@H]1SC(C)(C)[C@@H]2C(=O)O` [cloxacillin]?
Answer: mitoOX (mtOXPHOS transcripts; [4]): −0.508; MTT [1, 4]: −1.769; GE-HTS (OXPHOS gene expression; [4]): −0.568; Viability (C2C12 myotubes; [4]): −0.395; ROS (reactive oxygen species; [4]): 0.259; nucOX (nuOXPHOS transcripts; [4]): −0.506; ΔΨm [2, 4]: −0.339; cyt c (cytochrome c; [4]): 0.459

Question: With `C/C1=C2/[N-][C@H]([C@H](CC(N)=O)[C@@]2(C)CCC(=O)NC[C@@H](C)OP(=O)([O-])O[C@H]2[C@@H](O)[C@@H](n3cnc4cc(C)c(C)cc43)O[C@@H]2CO)[C@]2(C)N=C(/C(C)=C3N=C(/C=C4N=C1[C@@H](CCC(N)=O)C\4(C)C)[C@@H](CCC(N)=O)[C@]\3(C)CC(N)=O)[C@@H](CCC(N)=O)[C@]2(C)CC(N)=O.[Co]` [cobalamine] as the compound, how does the mitoOX (mtOXPHOS transcripts; [6]) read?
Answer: The mitoOX was −0.393.

Question: What about the MTT [1, 6] of the same compound?
Answer: Its MTT is −1.369.

Question: What about the GE-HTS (OXPHOS gene expression; [6]) of the same compound?
Answer: The GE-HTS was −0.402.

Question: What about the Viability (C2C12 myotubes; [6]) of the same compound?
Answer: Its Viability is −0.821.

Question: What about the ROS (reactive oxygen species; [6]) of the same compound?
Answer: The ROS was 2.944.

Question: And the nucOX (nuOXPHOS transcripts; [6])?
Answer: Its nucOX is −0.373.

Question: What about the ΔΨm [2, 6] of the same compound?
Answer: Its ΔΨm is 0.097.

Question: What about the cyt c (cytochrome c; [6]) of the same compound?
Answer: Its cyt c is −0.617.

Question: Which “mitoOX (composite Z-score)” value (mtOXPHOS transcripts; Conc 20 μM) does the source give for `COC1=C(OC)C(=O)C(C/C=C(\C)CC/C=C(\C)CC/C=C(\C)CC/C=C(\C)CC/C=C(\C)CC/C=C(\C)CC/C=C(\C)CC/C=C(\C)CC/C=C(\C)CCC=C(C)C)=C(C)C1=O` [coenzyme Q10] here?
Answer: The value was 0.226.

Question: And the “MTT (composite Z-score)” value ([1]; Conc 20 μM)?
Answer: The value was −1.758.

Question: And the “GE-HTS (composite Z-score)” value (OXPHOS gene expression; Conc 20 μM)?
Answer: Its value is 0.366.

Question: What about the “Viability (composite Z-score)” value (C2C12 myotubes; Conc 20 μM) of the same compound?
Answer: Its value is 0.166.

Question: And the “ROS (composite Z-score)” value (reactive oxygen species; Conc 20 μM)?
Answer: Its value is 1.179.

Question: What about the “nucOX (composite Z-score)” value (nuOXPHOS transcripts; Conc 20 μM) of the same compound?
Answer: Its value is 0.391.

Question: And the “ΔΨm (composite Z-score)” value ([2]; Conc 20 μM)?
Answer: Its value is 0.920.

Question: And the “cyt c (composite Z-score)” value (cytochrome c; Conc 20 μM)?
Answer: Its value is 0.636.

Question: What does the source list for `COc1cc2c(c(OC)c1OC)-c1ccc(=O)c(O)cc1[C@@H](NC(C)=O)CC2` [colchiceine]?
Answer: mitoOX (mtOXPHOS transcripts; [7]): 1.192; MTT [1, 7]: −3.186; GE-HTS (OXPHOS gene expression; [7]): 1.832; Viability (C2C12 myotubes; [7]): −0.333; ROS (reactive oxygen species; [7]): 0.469; nucOX (nuOXPHOS transcripts; [7]): 1.935; ΔΨm [2, 7]: −0.812; cyt c (cytochrome c; [7]): −0.908

Question: `COc1cc(/C=C/CO)ccc1O` [coniferyl alcohol] was tested. Which “mitoOX (composite Z-score)” value (mtOXPHOS transcripts; Conc 20 μM) did it give?
Answer: Its value is −0.251.

Question: What about the “MTT (composite Z-score)” value ([1]; Conc 20 μM) of the same compound?
Answer: Its value is −1.094.

Question: And the “GE-HTS (composite Z-score)” value (OXPHOS gene expression; Conc 20 μM)?
Answer: The value was −0.593.

Question: And the “Viability (composite Z-score)” value (C2C12 myotubes; Conc 20 μM)?
Answer: The value was −0.771.

Question: And the “ROS (composite Z-score)” value (reactive oxygen species; Conc 20 μM)?
Answer: The value was −0.450.

Question: And the “nucOX (composite Z-score)” value (nuOXPHOS transcripts; Conc 20 μM)?
Answer: Its value is −0.688.

Question: What about the “ΔΨm (composite Z-score)” value ([2]; Conc 20 μM) of the same compound?
Answer: Its value is −0.719.

Question: And the “cyt c (composite Z-score)” value (cytochrome c; Conc 20 μM)?
Answer: Its value is 0.296.

Question: For `C[C@]12CCC(=O)C=C1CC[C@@H]1[C@@H]2C(=O)C[C@@]2(C)[C@H]1CC[C@]2(O)C(=O)CO` [cortisone], which mitoOX (mtOXPHOS transcripts; [7]) is on record?
Answer: The mitoOX was −0.830.

Question: What about the MTT [1, 7] of the same compound?
Answer: Its MTT is −0.146.

Question: What about the GE-HTS (OXPHOS gene expression; [7]) of the same compound?
Answer: The GE-HTS was −0.428.

Question: What about the Viability (C2C12 myotubes; [7]) of the same compound?
Answer: The Viability was 0.644.

Question: What about the ROS (reactive oxygen species; [7]) of the same compound?
Answer: The ROS was 0.527.

Question: What about the nucOX (nuOXPHOS transcripts; [7]) of the same compound?
Answer: Its nucOX is −0.165.

Question: And the ΔΨm [2, 7]?
Answer: Its ΔΨm is −0.232.

Question: And the cyt c (cytochrome c; [7])?
Answer: Its cyt c is −0.078.

Question: How did the mitoOX (mtOXPHOS transcripts; [7]) turn out when `O=c1cc(-c2ccc(O)cc2)oc2cc(O[C@@H]3O[C@H](CO)[C@@H](O)[C@H](O)[C@H]3O)cc(O)c12` [cosmosiin] was run?
Answer: The mitoOX was −0.611.

Question: What about the MTT [1, 7] of the same compound?
Answer: The MTT was −0.801.

Question: What about the GE-HTS (OXPHOS gene expression; [7]) of the same compound?
Answer: The GE-HTS was −0.433.

Question: What about the Viability (C2C12 myotubes; [7]) of the same compound?
Answer: The Viability was 0.141.

Question: And the ROS (reactive oxygen species; [7])?
Answer: Its ROS is −0.052.

Question: And the nucOX (nuOXPHOS transcripts; [7])?
Answer: Its nucOX is −0.287.

Question: What about the ΔΨm [2, 7] of the same compound?
Answer: The ΔΨm was 0.053.

Question: What about the cyt c (cytochrome c; [7]) of the same compound?
Answer: Its cyt c is −0.009.

Question: `COc1c2c(cc3c1OCO3)CC[N+](C)=C2` [cotarnine] was tested. Which mitoOX (mtOXPHOS transcripts; [8]) did it give?
Answer: Its mitoOX is −0.151.

Question: And the MTT [1, 8]?
Answer: The MTT was −0.587.

Question: What about the GE-HTS (OXPHOS gene expression; [8]) of the same compound?
Answer: Its GE-HTS is 0.049.

Question: And the Viability (C2C12 myotubes; [8])?
Answer: Its Viability is −0.398.

Question: And the ROS (reactive oxygen species; [8])?
Answer: Its ROS is −0.007.

Question: And the nucOX (nuOXPHOS transcripts; [8])?
Answer: The nucOX was 0.159.

Question: What about the ΔΨm [2, 8] of the same compound?
Answer: Its ΔΨm is −1.103.

Question: What about the cyt c (cytochrome c; [8]) of the same compound?
Answer: Its cyt c is 0.068.
